We go through 23 molecules from patent publication US20140263071A1, “METHOD FOR COLLECTING METALS” (CHEMEC OY AB, priority 2011, published 2014).

Where two headings read alike, the source gives them in different places.

A short description of data set [1]: Solubility of the compounds, molybdenum blue method, UV/Vis 880 nm (Example 6). The data set is classed as physicochemical. Particulars: saturated aqueous solution. The source says:
The low solubility is achieved by using long carbon chain(s) or aromatic ring(s) in the bisphosphonate structure I. Advantageously, compound I contains 7-16 carbon atoms either in chain, branched chain or cyclic structure or in combination of these structural units between A and X, and preferably in the chain starting from the P-C-P bridging carbon and the number of heteroatomic functional groups excluding the phosphorous functionalities are limited to two or three groups. The solubility decreases even more if compound I contains functional groups which are capable to form twitter ions with each other. Typical examples of twitter ions are acids (e.g., —CO2H or —PO3H2) and bases (amines) in the same molecule. Solubilities of selected bisphosphonate compounds I were determined with UV/Vis spectrophotometer at 880 nm using molybdenum blue method (Finnish Standard Association SFS 3026: Determination of phosphate in water. Finnish Standard Association SFS, Helsinki Finland, 1986).
Solubilities of selected compounds were determined with UV/Vis Spectrophotometer at 880 nm using molybdenum blue method from saturated aqueous samples solutions (Finnish Standard Association SFS 3026: Determination of phosphate in water. Finnish Standard Association SFS, Helsinki Finland, 1986).

Data set [2] can be described thus: Expulsion of Cu^2+, Ni^2+ and Fe^3+ without and with activated carbon (Example 9). Particulars: pH 3, without activated carbon. The procedure: (§1) A water solution (110 ml) containing known amount of single cationic element or elements, typically 0.5-200 ppm, was prepared from Merch Titrisol® standard solution. After adjusting pH by using acid (e.g. HCl or HNO3) or base (e.g. NaOH) to desired initial value, sample A (10 ml) was taken followed by adding 100 mg of selected solid complexation agent. The mixture was stirred at room temperature for 24 h and sample B (10 ml) was taken. Samples A and B were filtrated separately trough 0.2 μm syringe filter and the concentration of the studied element or elements in both solution was determined by using atomic absorption spectrophotometer. The expulsion percent was determined from the concentration differences between the sample solutions A and B.
Using the general procedure described above expulsion percent of Cu^2+, Ni^2+ and Fe^3+ cations were determined at pH 3, when compounds 2a, 2b, 5b, 6b and 6c were used as complexation agents. Experiments were repeated also by adding activated carbon (100 mg) to solution at the same time with the used complexation agent.

Data set [3] is described as follows: Collection of Cu^2+ ions from solution with the prepared bisphosphonates (Example 26). Particulars: 1.00 ppm Cu^2+; pH 3; 50 mg bisphosphonate in 50 ml. The procedure: as §1
A solution containing 1.00 ppm of Cu^2+ cations at pH 3 was prepared and 50 ml of that solution was treated with the desired solid bisphosphonate (50 mg) using the procedure described in general procedure. Collection-% was determined for the following compounds (Cu^2+ collection-% in parenthesis): 3a (16%), 3b (88%), 3c (93%), 4 (95%), 5a (20%), 5b (18%), 5c (85%), 6b (48%), 6c (100%), 6d (100%), 7a (88%), 7b (100%), 8b (85%), 8c (88%), 8d (94%), 8e (73%) and 9b (76%).

Data set [4] in a line: Removal of Cr^3+ from acidic solution, TS 4 diluted 1:100 (Example 19). Particulars: TS 4 diluted 1:100, pH 3.67, 1.0 g agent in 50 ml, 24 h. The procedure: A test solution containing 24000 mg/l of Na^+; 50-2000 mg/l of Ca^2+, Cr^3+, K^+ and Mg^2+; and trace amount of Al^3+, Fe^2/3+, Mn^2+, Ni^2+, Sr^2+, V^4+, and Zn^2+ cations were prepared.
TS 4 was diluted to 1:100 with water, pH (3.67) of the solution was determined and sample A was taken. A part (50 ml) of the diluted solution was treated with 1a, 6d or 7a (1.0 g) for 24 h with stirring at room temperature. After filtration trough 0.2 μm syringe filter, the expulsion per for Cr(III) was determined compared to original solution A. The results of expulsion per cents of Cr^3+ and some other elements are given in Table 13.

Where [5] appears, read: read-out: mg/l (solubility calculated for whole molecule).
The mark [6] stands for this setting: read-out: mg/l P (solubility calculated as elemental phosphorus).

On to `NCCCCCCCC(O)(P(=O)(O)O)P(=O)(O)O` [Compound 1b, 8-Amino-1-hydroxyoctane-1,1-diyldiphosphonic acid], for which the solubility in data set [1] (setting [5]) was 2220 mg/L; in data set [1] (setting [6]), 426 mg/L.

Consider `NCCCCCCCCC(O)(P(=O)(O)O)P(=O)(O)O` [Compound 1c, 9-Amino-1-hydroxynonane-1,1-diyldiphosphonic acid], for which the solubility in data set [1] (setting [5]) was 2180 mg/L; in data set [1] (setting [6]), 400 mg/L.

Turning to `NCCCCCCCCCC(O)(P(=O)(O)O)P(=O)(O)O` [Compound 1d, 10-Amino-1-hydroxydecane-1,1-diyldiphosphonic acid], the solubility in data set [1] (setting [5]) is 227 mg/L; in data set [1] (setting [6]), 40 mg/L.

Regarding `NCCCCCCCCCCCCCCCC(O)(P(=O)(O)O)P(=O)(O)O` [Compound 1f, 16-Amino-1-hydroxyhexadecane-1,1-diyldiphosphonic acid], the values for the solubility in data set [1] (setting [5]) and in data set [1] (setting [6]) were 42 mg/L and 6 mg/L, respectively.

Turning to `CNCCCCCCCCCCC(O)(P(=O)(O)O)P(=O)(O)O` [Compound 2a, 1-Hydroxy-11-(methylamino)undecane-1,1-diyldiphosphonic acid], the solubility in data set [1] (setting [5]) was 594 mg/L. The solubility in data set [1] (setting [6]) is 97 mg/L. Further, in data set [2], the “Expulsion [%] Cu^2+” value came out at 16.4%, the “Expulsion [%] Fe^3+” value came out at 44.7% and the “Expulsion [%] Ni^2+” value is listed as 13.3%.

Regarding `O=P(O)(O)C(O)(CCCCCCCCCCO)P(=O)(O)O` [Compound 2b, 1,11-Dihydroxyundecane-1,1-diyldiphosphonic acid], in data set [1] (setting [5]), the solubility is 22900 mg/L. Besides, the solubility in data set [1] (setting [6]) was 3870 mg/L. In data set [2], the “Expulsion [%] Cu^2+” value is 100.0%, the “Expulsion [%] Fe^3+” value came out at 92.6% and the “Expulsion [%] Ni^2+” value is on record as 6.9%.

In the case of `CCCCCC(O)(P(=O)(O)O)P(=O)(O)O` [Compound 3a, 1-Hydroxyhexane-1,1-diyldiphosphonic acid], the solubility was 54 mg/L in data set [1] (setting [5]) and 12 mg/L in data set [1] (setting [6]). The “Cu^2+ collection-%” value in data set [3] was 16%.

Consider `CCCCCCCCC(O)(P(=O)(O)O)P(=O)(O)O` [Compound 3b, 1-Hydroxynonane-1,1-diyldiphosphonic acid], for which the solubility in data set [1] (setting [5]) was 5 mg/L; in data set [1] (setting [6]), 1 mg/L. Besides, the “Cu^2+ collection-%” value in data set [3] was 88%.

On to `CCCCCCCCCCC(O)(P(=O)(O)O)P(=O)(O)O` [Compound 3c, 1-Hydroxyundecane-1,1-diyldiphosphonic acid], for which the solubility in data set [1] (setting [6]) is 0.3 mg/L. Also, the “Cu^2+ collection-%” value in data set [3] was determined as 93%.

Turning to `CCCCCCCC/C=C\CCCCCCCC(O)(P(=O)(O)O)P(=O)(O)O` [Compound 4, (Z)-1-Hydroxyoctadec-9-ene-1,1-diyldiphosphonic acid], in data set [3], the “Cu^2+ collection-%” value was found to be 95%.

For the molecule `O=P(O)(O)C(O)(CCCCc1ccccc1)P(=O)(O)O` [Compound 5a, 1-Hydroxy-5-phenylpentane-1,1-diyldiphosphonic acid], in data set [1] (setting [6]), the solubility is 1.8 mg/L. Besides, in data set [3], the “Cu^2+ collection-%” value was 20%.

Regarding `Nc1ccc(CCCC(O)(P(=O)(O)O)P(=O)(O)O)cc1` [Compound 5b, 4-(4-Aminophenyl)-1-hydroxybutane-1,1-diyldiphosphonic acid], the solubility in data set [1] (setting [6]) is 79 mg/L. Also, in data set [2], the “Expulsion [%] Cu^2+” value was 21.4%, the “Expulsion [%] Fe^3+” value was determined as 56.3% and the “Expulsion [%] Ni^2+” value is listed as 7.9%. Moreover, the “Cu^2+ collection-%” value in data set [3] came to 18%.

As for `O=P(O)(O)C(O)(CCCCCCc1ccccc1)P(=O)(O)O` [Compound 5c, 1-Hydroxy-7-phenylheptane-1,1-diyldiphosphonic acid], the solubility in data set [1] (setting [6]) was 0.2 mg/L. The “Cu^2+ collection-%” value in data set [3] was 85%.

Regarding `CCCCCCCCCCC(P(=O)(O)O)P(=O)(O)O` [Compound 6b, Undecane-1,1-diyldiphosphonic acid], the solubility in data set [1] (setting [6]) was 0.7 mg/L. In data set [2], the “Expulsion [%] Cu^2+” value turned out to be 1.3%, the “Expulsion [%] Fe^3+” value is given as 3.9% and the “Expulsion [%] Ni^2+” value is on record as 17.2%. Also, the “Cu^2+ collection-%” value in data set [3] is listed as 48%.

Take `CCCCCCCCCCCCC(P(=O)(O)O)P(=O)(O)O` [Compound 6c, Tridecane-1,1-diyldiphosphonic acid]: the solubility in data set [1] (setting [6]) was 0.2 mg/L. Moreover, in data set [2], the “Expulsion [%] Cu^2+” value came out at 20.8%, the “Expulsion [%] Fe^3+” value came to 19.0% and the “Expulsion [%] Ni^2+” value is 20.8%. Besides, in data set [3], the “Cu^2+ collection-%” value is 100%.

As for `CCCCCCCCCCCCCCCCC(P(=O)(O)O)P(=O)(O)O` [Compound 6d, Heptadecane-1,1-diyldiphosphonic acid], the solubility in data set [1] (setting [6]) is 0.03 mg/L. Also, the “Cu^2+ collection-%” value in data set [3] is 100%. The “Expulsion [%] Ca^2+” value in data set [4] (Ca^2+) amounted to 11%. Also, in data set [4], the “Expulsion [%] Cr^3+” value worked out at 100%. In addition, the “Expulsion [%] K^+” value in data set [4] (K^+) stood at 52%. In addition, the “Expulsion [%] Mg^2+” value in data set [4] (Mg^2+) amounted to 80%. Moreover, the “Expulsion [%] Na^+” value in data set [4] (Na^+) was determined as 39%.

In the case of `CCCCCCCCC(N)(P(=O)(O)O)P(=O)(O)O` [Compound 7a, 1-Aminononane-1,1-diyldiphosphonic acid], the solubility in data set [1] (setting [6]) is 0.08 mg/L. Also, in data set [3], the “Cu^2+ collection-%” value is 88%. In addition, the “Expulsion [%] Cr^3+” value in data set [4] amounted to 85%.

`CCCCCCCCCC(N)(P(=O)(O)O)P(=O)(O)O` [Compound 7b, 1-Aminodecane-1,1-diyldiphosphonic acid]: the solubility in data set [1] (setting [6]) was 0.05 mg/L. Further, the “Cu^2+ collection-%” value in data set [3] amounted to 100%.

For `C[N+](C)(C)CCCCCCCCCCC(O)(P(=O)(O)O)P(=O)(O)O.[Cl-]` [Compound 8b, 11-Hydroxy-N,N,N-trimethyl-11,11-diphosphonoundecan-1-aminium chloride], in data set [3], the “Cu^2+ collection-%” value was 85%.

In the case of `CC(=O)NCCCCCCCCCCC(O)(P(=O)(O)O)P(=O)(O)O` [Compound 8c, 11-Acetamido-1-hydroxyundecane-1,1-diyldiphosphonic acid], in data set [3], the “Cu^2+ collection-%” value was 88%.

For `O=C(O)CCCCCCCCCCSCC(P(=O)(O)O)P(=O)(O)O` [Compound 8d, 11-((2,2-diphosphonoethyl)thio)undecanoic acid], the “Cu^2+ collection-%” value in data set [3] is reported as 94%.

Consider `O=C(O)CCCCCNCC(P(=O)(O)O)P(=O)(O)O` [Compound 8e, 6-((2,2-diphosphonoethyl)amino)hexanoic acid], for which the “Cu^2+ collection-%” value in data set [3] was determined as 73%.

Consider `CCCCCCCCCCCC(=O)OC(C)(P(=O)(O)O)P(=O)(O)O` [Compound 9b, 1-(Dodecanoyloxy)ethane-1,1-diyldiphosphonic acid], for which the “Cu^2+ collection-%” value in data set [3] came out at 76%.
